The values below come from PMC9072250 (Acta Pharmaceutica Sinica. B, 2021).

Test [1] concerns monocrotaline-induced PAH rat model. The experiment in a line: Monocrotaline-induced PAH rat model. The following applies: PAH rats, 10.0 mg/kg (po) daily for 3 weeks, positive control. Type of test: in vivo, Wister rats.
A further test has as its system PDE6A. The note with it: PDE6A versus PDE5A1; cited from earlier work.

The structures appear in SMILES notation. Where a name gives a salt, the structure may show the parent alone.

Take `CCCc1nn(C)c2c(=O)[nH]c(-c3cc(S(=O)(=O)N4CCN(C)CC4)ccc3OCC)nc12` [sildenafil citrate]: in test [1], the “mean pulmonary artery pressure (mPAP)” value was “decreased significantly”, the “right ventricle hypertrophy index (RVHI%)” value is given as “decreased significantly” and the “wall thickness percentage (WT%)” value is reported as “decreased significantly”.

In the case of `CCCc1nn(C)c2c(=O)[nH]c(-c3cc(S(=O)(=O)N4CCN(C)CC4)ccc3OCC)nc12` [sildenafil], the “IC50 potency against PDE6A relative to PDE5A1” value in the test with PDE6A is listed as 5 fold.
